Experimental data published in ChEMBL document CHEMBL3044996, “Diatomaceous earths enhance the insecticidal effect of bitterbarkomycin against stored-grain insects” (2009).
Calls of active or inactive are those of the source. No cut-off for these calls is given here.

How the values were obtained:
Tribolium castaneum [1] = assay: Insecticidal activity against adult Tribolium castaneum (red flour beetle) assessed as mortality at 0.0625 ppm exposed for 14 days on wheat; format: functional
Sitophilus zeamais [2] = assay: Insecticidal activity against adult Sitophilus zeamais assessed as mortality at 0.075 ppm exposed for 5 days on wheat; format: functional
Sitophilus zeamais [3] = assay: Insecticidal activity against adult Sitophilus zeamais assessed as mortality at 0.05 ppm exposed for 7 days on wheat; format: functional
Tribolium castaneum [4] = assay: Insecticidal activity against adult Tribolium castaneum (red flour beetle) assessed as mortality at 0.075 ppm exposed for 14 days on wheat; format: functional
Cryptolestes ferrugineus [5] = assay: Insecticidal activity against adult Cryptolestes ferrugineus (rusty grain beetle) assessed as mortality at 0.05 ppm exposed for 5 days on wheat; format: functional; conditions: 120 h
Tribolium castaneum [6] = assay: Insecticidal activity against adult Tribolium castaneum (red flour beetle) assessed as mortality at 0.0625 ppm exposed for 7 days on wheat; format: functional
Cryptolestes ferrugineus [7] = assay: Insecticidal activity against adult Cryptolestes ferrugineus (rusty grain beetle) assessed as mortality at 0.0625 ppm exposed for 14 days on wheat; format: functional; conditions: 336 h
Tribolium castaneum [8] = assay: Reduction of progeny production in adult Tribolium castaneum (red flour beetle) at 0.0875 to 0.0375 to ppm exposed on wheat; format: functional, organism-based
Tribolium castaneum [9] = assay: Insecticidal activity against adult Tribolium castaneum (red flour beetle) assessed as mortality at 0.0875 ppm exposed for 14 days on wheat; format: functional
Cryptolestes ferrugineus [10] = assay: Insecticidal activity against adult Cryptolestes ferrugineus (rusty grain beetle) assessed as mortality at 0.075 ppm exposed for 14 days on wheat; format: functional; conditions: 336 h
Cryptolestes ferrugineus [11] = assay: Insecticidal activity against adult Cryptolestes ferrugineus (rusty grain beetle) assessed as mortality at 0.0625 ppm exposed for 5 days on wheat; format: functional; conditions: 120 h
Sitophilus zeamais [12] = assay: Insecticidal activity against adult Sitophilus zeamais assessed as mortality at 0.0875 ppm exposed for 14 days on wheat; format: functional
Tribolium castaneum [13] = assay: Insecticidal activity against adult Tribolium castaneum (red flour beetle) assessed as mortality at 0.0375 ppm exposed for 5 days on wheat; format: functional
Sitophilus zeamais [14] = assay: Insecticidal activity against adult Sitophilus zeamais assessed as mortality at 0.0625 ppm exposed for 5 days on wheat; format: functional
Tribolium castaneum [15] = assay: Insecticidal activity against adult Tribolium castaneum (red flour beetle) assessed as mortality at 0.075 ppm exposed for 5 days on wheat; format: functional
Cryptolestes ferrugineus [16] = assay: Insecticidal activity against adult Cryptolestes ferrugineus (rusty grain beetle) assessed as mortality at 0.05 ppm exposed for 7 days on wheat; format: functional; conditions: 168 h
Sitophilus zeamais [17] = assay: Reduction of progeny production in adult Sitophilus zeamais at 0.0875 to 0.0375 to ppm exposed on wheat; format: functional, organism-based
Sitophilus zeamais [18] = assay: Insecticidal activity against adult Sitophilus zeamais assessed as mortality at 0.0875 ppm exposed for 5 days on wheat; format: functional
Tribolium castaneum [19] = assay: Insecticidal activity against adult Tribolium castaneum (red flour beetle) assessed as mortality at 0.075 ppm exposed for 7 days on wheat; format: functional
Tribolium castaneum [20] = assay: Insecticidal activity against adult Tribolium castaneum (red flour beetle) assessed as mortality at 0.05 ppm exposed for 7 days on wheat; format: functional
Cryptolestes ferrugineus [21] = assay: Insecticidal activity against adult Cryptolestes ferrugineus (rusty grain beetle) assessed as mortality at 0.0375 ppm exposed for 5 days on wheat; format: functional; conditions: 120 h
Sitophilus zeamais [22] = assay: Insecticidal activity against adult Sitophilus zeamais assessed as mortality at 0.0625 ppm exposed for 7 days on wheat; format: functional
Sitophilus zeamais [23] = assay: Insecticidal activity against adult Sitophilus zeamais assessed as mortality at 0.05 ppm exposed for 14 days on wheat; format: functional
Cryptolestes ferrugineus [24] = assay: Insecticidal activity against adult Cryptolestes ferrugineus (rusty grain beetle) assessed as mortality at 0.0375 ppm exposed for 7 days on wheat; format: functional; conditions: 168 h
Tribolium castaneum [25] = assay: Insecticidal activity against adult Tribolium castaneum (red flour beetle) assessed as mortality at 0.05 ppm exposed for 5 days on wheat; format: functional
Cryptolestes ferrugineus [26] = assay: Reduction of progeny production in adult Cryptolestes ferrugineus (rusty grain beetle) at 0.0875 to 0.0375 to ppm exposed on wheat; format: functional, organism-based
Cryptolestes ferrugineus [27] = assay: Insecticidal activity against adult Cryptolestes ferrugineus (rusty grain beetle) assessed as mortality at 0.0875 ppm exposed for 5 days on wheat; format: functional; conditions: 120 h
Cryptolestes ferrugineus [28] = assay: Insecticidal activity against adult Cryptolestes ferrugineus (rusty grain beetle) assessed as mortality at 0.05 ppm exposed for 14 days on wheat; format: functional; conditions: 336 h
Sitophilus zeamais [29] = assay: Insecticidal activity against adult Sitophilus zeamais assessed as mortality at 0.05 ppm exposed for 5 days on wheat; format: functional
Tribolium castaneum [30] = assay: Insecticidal activity against adult Tribolium castaneum (red flour beetle) assessed as mortality at 0.0875 ppm exposed for 5 days on wheat; format: functional
Cryptolestes ferrugineus [31] = assay: Insecticidal activity against adult Cryptolestes ferrugineus (rusty grain beetle) assessed as mortality at 0.0625 ppm exposed for 7 days on wheat; format: functional; conditions: 168 h
Cryptolestes ferrugineus [32] = assay: Insecticidal activity against adult Cryptolestes ferrugineus (rusty grain beetle) assessed as mortality at 0.0375 ppm exposed for 14 days on wheat; format: functional; conditions: 336 h
Sitophilus zeamais [33] = assay: Insecticidal activity against adult Sitophilus zeamais assessed as mortality at 0.075 ppm exposed for 7 days on wheat; format: functional
Sitophilus zeamais [34] = assay: Insecticidal activity against adult Sitophilus zeamais assessed as mortality at 0.075 ppm exposed for 14 days on wheat; format: functional
Tribolium castaneum [35] = assay: Insecticidal activity against adult Tribolium castaneum (red flour beetle) assessed as mortality at 0.05 ppm exposed for 14 days on wheat; format: functional
Tribolium castaneum [36] = assay: Insecticidal activity against adult Tribolium castaneum (red flour beetle) assessed as mortality at 0.0625 ppm exposed for 5 days on wheat; format: functional
Sitophilus zeamais [37] = assay: Insecticidal activity against adult Sitophilus zeamais assessed as mortality at 0.0625 ppm exposed for 14 days on wheat; format: functional
Cryptolestes ferrugineus [38] = assay: Insecticidal activity against adult Cryptolestes ferrugineus (rusty grain beetle) assessed as mortality at 0.075 ppm exposed for 5 days on wheat; format: functional; conditions: 120 h
Tribolium castaneum [39] = assay: Insecticidal activity against adult Tribolium castaneum (red flour beetle) assessed as mortality at 0.0875 ppm exposed for 7 days on wheat; format: functional
Cryptolestes ferrugineus [40] = assay: Insecticidal activity against adult Cryptolestes ferrugineus (rusty grain beetle) assessed as mortality at 0.0875 ppm exposed for 7 days on wheat; format: functional; conditions: 168 h
Cryptolestes ferrugineus [41] = assay: Insecticidal activity against adult Cryptolestes ferrugineus (rusty grain beetle) assessed as mortality at 0.075 ppm exposed for 7 days on wheat; format: functional; conditions: 168 h
Tribolium castaneum [42] = assay: Insecticidal activity against adult Tribolium castaneum (red flour beetle) assessed as mortality at 0.0375 ppm exposed for 7 days on wheat; format: functional
Tribolium castaneum [43] = assay: Insecticidal activity against adult Tribolium castaneum (red flour beetle) assessed as mortality at 0.0375 ppm exposed for 14 days on wheat; format: functional
Sitophilus zeamais [44] = assay: Insecticidal activity against adult Sitophilus zeamais assessed as mortality at 0.0375 ppm exposed for 7 days on wheat; format: functional
Cryptolestes ferrugineus [45] = assay: Insecticidal activity against adult Cryptolestes ferrugineus (rusty grain beetle) assessed as mortality at 0.0875 ppm exposed for 14 days on wheat; format: functional; conditions: 336 h
Sitophilus zeamais [46] = assay: Insecticidal activity against adult Sitophilus zeamais assessed as mortality at 0.0875 ppm exposed for 7 days on wheat; format: functional
Sitophilus zeamais [47] = assay: Insecticidal activity against adult Sitophilus zeamais assessed as mortality at 0.0375 ppm exposed for 5 days on wheat; format: functional
Sitophilus zeamais [48] = assay: Insecticidal activity against adult Sitophilus zeamais assessed as mortality at 0.0375 ppm exposed for 14 days on wheat; format: functional

CC(=O)O[C@H]1C[C@](C)(O)[C@]23OC(C)(C)[C@H]([C@H](OCC(C)C)[C@@H](OCc4ccccc4)[C@]2(COCC(C)C)[C@H]1OC(C)=O)[C@H]3O [BITTERBARKOMYCIN]
Activity (Tribolium castaneum [1]): 95.8% | Activity (Sitophilus zeamais [2]): 80.2% | Activity (Sitophilus zeamais [3]): 65.1% | Activity (Tribolium castaneum [4]): 99.6% | mortality at 0.05 ppm (Cryptolestes ferrugineus [5]): 47.6% | Activity (Tribolium castaneum [6]): 60.4% | mortality at 0.0625 ppm (Cryptolestes ferrugineus [7]): 90.3% | Activity (Tribolium castaneum [8]): Active | Activity (Tribolium castaneum [9]): 100% | mortality at 0.075 ppm (Cryptolestes ferrugineus [10]): 100% | mortality at 0.0625 ppm (Cryptolestes ferrugineus [11]): 53.1% | Activity (Sitophilus zeamais [12]): 98.2% | Activity (Tribolium castaneum [13]): 19.6% | Activity (Sitophilus zeamais [14]): 68.4% | Activity (Tribolium castaneum [15]): 33.6% | mortality at 0.05 ppm (Cryptolestes ferrugineus [16]): 70.7% | Activity (Sitophilus zeamais [17]): Active | Activity (Sitophilus zeamais [18]): 85.3% | Activity (Tribolium castaneum [19]): 63.1% | Activity (Tribolium castaneum [20]): 56.2% | mortality at 0.0375 ppm (Cryptolestes ferrugineus [21]): 44.7% | Activity (Sitophilus zeamais [22]): 72.2% | Activity (Sitophilus zeamais [23]): 73.8% | mortality at 0.0375 ppm (Cryptolestes ferrugineus [24]): 64% | Activity (Tribolium castaneum [25]): 21.8% | Activity (Cryptolestes ferrugineus [26]): Active | mortality at 0.0875 ppm (Cryptolestes ferrugineus [27]): 92.9% | mortality at 0.05 ppm (Cryptolestes ferrugineus [28]): 86.7% | Activity (Sitophilus zeamais [29]): 59.1% | Activity (Tribolium castaneum [30]): 50% | mortality at 0.0625 ppm (Cryptolestes ferrugineus [31]): 76.1% | mortality at 0.0375 ppm (Cryptolestes ferrugineus [32]): 83.8% | Activity (Sitophilus zeamais [33]): 86% | Activity (Sitophilus zeamais [34]): 92.9% | Activity (Tribolium castaneum [35]): 86% | Activity (Tribolium castaneum [36]): 23.3% | Activity (Sitophilus zeamais [37]): 83.1% | mortality at 0.075 ppm (Cryptolestes ferrugineus [38]): 88.4% | Activity (Tribolium castaneum [39]): 68% | mortality at 0.0875 ppm (Cryptolestes ferrugineus [40]): 100% | mortality at 0.075 ppm (Cryptolestes ferrugineus [41]): 98.2% | Activity (Tribolium castaneum [42]): 48.2% | Activity (Tribolium castaneum [43]): 66% | Activity (Sitophilus zeamais [44]): 52.4% | mortality at 0.0875 ppm (Cryptolestes ferrugineus [45]): 100% | Activity (Sitophilus zeamais [46]): 90.4% | Activity (Sitophilus zeamais [47]): 39.8% | Activity (Sitophilus zeamais [48]): 64.4%
